Data from article PMC4598760 (Biomolecules, 2015).
Like-named read-outs stand apart in the source and are kept apart here.

Legend:
[1] = tested on: hemagglutinin (HA) on immobilized influenza virus A/Mem71 (H3N1); assay type: binding, influenza A virus A/Memphis/1971
[2] = tested on: influenza virus A/Mem71 (H3N1); settings: for Kd: read-out: K*d (apparent)
[3] = tested on: A/Udorn/307/1972 (A/Udorn72, H3N2)
[4] = tested on: A/Philippines/2/82/X-79 (A/Philips, H3N2)

Q: Which results are given for `CC(=O)N[C@H]1[C@H]([C@H](O)[C@H](O)CO)O[C@@](O[C@H]2[C@@H](O)[C@@H](CO)O[C@@H](O[C@H]3[C@H](O)[C@@H](O)C(O)O[C@@H]3CO)[C@@H]2O)(C(=O)O)C[C@@H]1O` (stereo partly drawn) [α2-3 sialyllactose (OS-11), α2-3-sialyllactose]?
A: Kd [1]: 26.3 mM; Koff [1]: 0.0736 s⁻¹; Kd ([1]; monovalent, 288 K): 2.6 mM; Kd ([1]; monovalent, 293 K): 6.4 mM; Kd ([1]; monovalent, 296 K): 18.8 mM

Q: Which Kd [1] does the source give for `CC(=O)N[C@H]1[C@H]([C@H](O)[C@H](O)CO)O[C@@](OC[C@H]2O[C@@H](O[C@H]3[C@H](O)[C@@H](O)C(O)O[C@@H]3CO)[C@H](O)[C@@H](O)[C@H]2O)(C(=O)O)C[C@@H]1O` (stereo partly drawn) [α2-6 sialyllactose (OS-21), α2-6-sialyllactose] here?
A: 47.6 mM

Q: And the Koff [1]?
A: 0.128 s⁻¹

Q: What about the Kd ([1]; monovalent, 288 K) of the same molecule?
A: 6.8 mM

Q: And the Kd ([1]; monovalent, 293 K)?
A: 11.2 mM

Q: And the Kd ([1]; monovalent, 296 K)?
A: 23.8 mM

Q: Which “virus binding to surface-bound glycan (in words)” value [2] does the source give for Kdnα2-6Galβ1-4Glcβ-Biotin [OS-19] here?
A: does not bind

Q: Which “K*off (apparent)” value [2] does the source give for Neu5Acα2-3Galβ1-4Glcβ-Biotin [OS-11] here?
A: 4.1e-06 s⁻¹

Q: What about the “K*on (apparent)” value [2] of the same molecule?
A: 7200 M⁻¹ s⁻¹

Q: What about the Kd [2] of the same molecule?
A: 0.58 nM

Q: Which “virus binding to surface-bound glycan (in words)” value [2] does the source give for Neu5Acα2-6GalNAcα-Biotin [OS-18] here?
A: binds

Q: Which “K*off (apparent)” value [2] does the source give for Neu5Acα2-6Galβ1-4Glcβ-Biotin [OS-21] here?
A: <3e-06 s⁻¹

Q: What about the “K*on (apparent)” value [2] of the same molecule?
A: 7000 M⁻¹ s⁻¹

Q: And the Kd [2]?
A: < 0.43 nM

Q: Which results are given for Neu5Gcα2-6Galβ1-4Glcβ-Biotin [OS-20]?
A: virus binding to surface-bound glycan (in words) [3]: binds; virus binding to surface-bound glycan (in words) [4]: do not
